Reference: US12486218B2, “Compounds advantageous in the treatment of central nervous system diseases and disorders” (AurimMed Pharma, Inc., priority 2008, dated 2025)
Where two headings read alike, the source gives them in different places.

What was measured:
mice [1] = test: Maximal Electroshock Seizure (MES) test, mice i.p.; format: in vivo; conditions: for MES, fraction of animals: mice i.p.; for activity in the MES test: at 100 mg/kg
mice [2] = test: Effects observed in mice after i.p. injection (CNS stimulation, diarrhea); format: in vivo
Method: In addition, two further tertiary amide compounds, BJ and BT, produced diarrhea in the mice 30 minutes after i.p. injection of 100 mg/kg of each.

rats [3] = test: MES test, rats p.o.; format: in vivo; conditions: at 30 mg/kg
mice [4] = test: 6 Hz (minimal clonic seizure) model, mice i.p.; format: in vivo; conditions: mice i.p.
mice [5] = test: Mouse formalin pain model; format: in vivo; conditions: 76 mg/kg i.p., at 0.5 hours
[6] = system: rat dopaminergic N27 cells; test: N27 protection assay against oxidative stress (H2O2 or MPP+; MTT and LDH); format: cell-based; conditions: drug 24 hours before 200 μM H2O2 or 640 μM MPP+
From the text: FIGS. 20A-25D data are shown illustrating neuroprotective and neuroregenerative effects observed in rat dopaminergic N27 cells. Rat dopaminergic N27 cells are commonly used in in vitro and in vivo model systems for studying Parkinson's disease. Parkinson's disease is a neurodegenerative disorder of the central nervous system that affects more than 6 million people worldwide. The motor symptoms of Parkinson's disease result from the death of dopamine generating cells in the substantia nigra, a region of the midbrain.
The N27 rat dopaminergic neuron cell line was harvested from E12 rat mesencephalic tissue and was transfected with SV40 to immortalize the cell line. The N27 cell line, when injected into the striata of 6-hydroxydopamine-lesioned rats (an animal model of PD) caused a time-dependent improvement in neurological deficits. This immortalized cell line has been carefully characterized in studies of dopamine biosynthesis, neurotoxicity and used as a dopaminergic neuron model studies.
The N27 in vitro Parkinson's disease model included a test of cell viability and cell toxicity in response to exposure to oxidative stress (e.g., either 200 μM H2O2 or 640 μM MPP+).
Cell viability was tested using the MTT assay. The MTT assay is a colorimetric analysis based on the activities of mitochondrial NAD(P)H-dependent cellular oxidoreductase enzymes. These enzymes are capable of reducing the tetrazolium dye, MTT [3-(4,5-dimethylthiazol-2-yl)-2,5-diphenyltetrazolium] bromide, to an insoluble formazan (purple). […] More viable cells equal more accumulation of the insoluble formazan dye.
Cell toxicity was tested using the […] (LDH) assay. Cells that are stressed secrete LDH. In general, the more cells are stressed, the LDH they secrete into their media. The LDH assay is a reliable colorimetric assay to measure quantitatively the […] (LDH) that is released into the cell culture media from damaged cells as a biomarker for cytotoxicity and cytolysis.
FIGS. 20A-25D present data from two types of assays: protection and recovery assays. In the protection assays, the drug candidate was applied to the cells at various concentrations for 24 hours, followed by the exposure to oxidative stress (either 200 μM H2O2 or 640 μM MPP+) for measuring neuroprotective effect. H2O2 provides a broad measure of oxidative stress, while MPP+ gives a more specific oxidative stress to dopaminergic neurons.
The protection assay results are shown in panels A-C of FIGS. 20-25 In the recovery assays, the cells were first damaged by exposure to H2O2 and then various concentrations of the drug were applied to the cells. The results for the recovery assays are shown the D panels of FIGS. 20-25.

[7] = system: type II SMA fibroblasts (GM03813); test: SMN protein localization, gem counting in type II SMA fibroblasts; format: cell-based; conditions: 100 nM-10 μM, 5 days
Method: To validate the SMN2 promoter and exon 7 screens, the effects of compounds H, H (acid form), AY, F, BX, and BY were evaluated on the basis of expression and localization of SMN protein in type II SMA fibroblasts (GM03813). In a normal cell, SMN protein localized within the nucleus to discreet foci known as gems. In SMN-deficient SMA cells, the number of gems is greatly diminished. Although the function of gems is unknown, it is believed that they are somehow involved in the snRNP assembly function of SMN. Gem counting can, therefore, be considered an assay for SMN function.
GM03813 fibroblasts were treated with different doses (100 nM-10 μM) of compounds H, H (acid form), AY, F, BX, and BY for 5 days. SMN immunostaining was then completed on these cells and the number of gems was counted in 100 randomly-selected nuclei. […] In fact, the gem counts at the highest dose of compound H approach those observed for carrier fibroblasts (GM03814). When compared against treatment with 1 μM D157495—a D156844 derivative, all of the compounds tested performed as well as or, even better than D157495.

in vivo = conditions: mouse, ip
Method: (§1) The animal testing was performed according to methods known in the relevant art.

mice [8] = test: Subcutaneous Metrazol Seizure threshold (s.c. MET) test, mice i.p.; format: in vivo
rats [9] = test: s.c. MET test, rats p.o.; format: in vivo; conditions: at 30 mg/kg
rats [10] = test: Hippocampal Kindled Rats model; format: in vivo; conditions: rats, at 100 mg/kg
rats [11] = test: Sciatic nerve ligation model in rats; format: in vivo; conditions: 100 mg/kg
Method: [The response (threshold for foot withdrawal) was measured in grams.]

mice [12] = test: Minimal motor impairment (MID50), mice i.p.
Method: as §1

rats [13] = test: Pilocarpine-induced Status Epilepticus in Rats (prevention; intervention @ 30 min); conditions: Rattus norvegicus
Method: The animal testing was performed using the protocols developed in the Anticonvulsant Screening Program (ASP) at the National Institute of Neurological Disorders and Stroke (NINDS), National Institutes of Health (NIH).

Compound: CC(CC(=O)N1CCN(C)CC1)c1ccc(OC(F)(F)F)cc1.Cl (stereo not shown) [BJ, 1-(4-Methyl-piperazin-1-yl)-3-(4-trifluoromethoxy-phenyl)-butan-1-one hydrochloride]
- MES, fraction of animals (mice [1]; 100 mg/kg @ 0.25 hr): 2/3 @
- activity in the MES test (mice [1]; mice): activity
- effect produced in the mice (mice [2]; 30 minutes after i.p. injection of 100 mg/kg): diarrhea
- activity in the MES test (rats [3]): activity

Compound: CCN(C)C(=O)CC(C)c1ccc(OC(F)(F)F)cc1 (stereo not shown) [BE, N-Ethyl-N-methyl-3-(4-trifluoromethoxy-phenyl)-butyramide]
- MES, fraction of animals (mice [1]; 100 mg/kg @ 0.5 hr): 1/3 @
- activity in the MES test (mice [1]; mice): activity
- 6 Hz (32 mA), fraction of animals (mice [4]; 100 mg/kg @ 0.5 hr): 2/4 @ 0.5 hr,
- CNS-stimulating effect observed (mice [2]; mice, 300 mg/kg i.p., 30 minutes after injection): tremors
- activity in the MES test (rats [3]): activity

Compound: C[C@@H](CC(N)=O)c1ccc(OC(F)(F)F)cc1 (single isomer, unassigned) [BY, S-(+)-3-(4-Trifluoromethoxy-phenyl)butyramide]
- 6 Hz (32 mA), fraction of animals (mice [4]; 100 mg/kg @ 0.25 hr): 1/4
- 6 Hz (32 mA), fraction of animals (mice [4]; 100 mg/kg @ 0.5 hr): 2/4
- pain response, acute phase (mice [5]): 53 % of the control
- pain response, inflammatory phase (mice [5]): 24 % of the control
- neuroprotective effect against H2O2 and MPP+ oxidative stresses (MTT and LDH assays) [6]: potent dose-dependent neuroprotective effects
- gem counts (SMN immunostaining, 100 nuclei) [7]: increase gem counts in a dose-dependent manner
- TD50 at 0.25 hr (in vivo): 104 mg/kg

Compound: CC(CC(N)=O)c1cccc(C(F)(F)F)c1 (stereo not shown) [Compound G, 3-[3-(trifluoromethyl)-phenyl]butyramide]
- ED50 (mice [1]; Mus musculus, ip, mice): < 100 mg/kg
- MES, fraction of animals (mice [1]; 100 mg/kg @ 0.5 hr): 3/3 @0.5
- MES, fraction of animals (mice [1]; 100 mg/kg @ 4.0 hr): hr, 1/3 @
- ED50 (mice [8]; Mus musculus, mice, i.p.): ≤ 100 mg/kg
- s.c. MET, fraction of animals (mice [8]; mice i.p., 100 mg/kg @ 0.5 hr): 1/1 @0.5
- activity in the MES test (rats [3]): activity
- activity in the s.c. MET test (rats [9]): activity
- seizure score, Hippocampal Kindled Rats model (rats [10]): significantly lowering the seizure score
- allodynic threshold (rats [11]; 1 hour post-administration): 275 % of the control
- allodynic threshold (rats [11]; 2 hours post-administration): 219 % of the control
- allodynic threshold (rats [11]; 4 hours post-administration): 175 % of the control
- MID50, fraction of animals (mice [12]; mice i.p., 100 mg/kg @ 0.5 hr): 7/8 @0.5 hr
- MID50 (median minimal motor impairment dose) (mice [12]; mice, i.p.): <100 mg/kg
- responders at 200 mg/kg (rats [13]; 0.5 h, read-out: Intervention @ 30 min, Protection): 88%
- responders at 200 mg/kg (rats [13]; read-out: Prevention, Protection): 100%
